In brackets after ≈: the same amount, converted by molar mass.
Key:
MCF7 cells [1] = test: Seahorse XF96 metabolic flux: oxygen consumption rate (OCR), ATP; assay type: cell-based, human; conditions: for rank order potency to reduce maximal respiration and ATP production: MCF7, top 10 hits; for mitochondrial oxygen-consumption: MCF7, 72 hours treatment
Source text: (§1) The present approach further involves methods of functional validation at step S105, during which a compound's function as a mitochondrial inhibitor may be confirmed. A number of methods may be used for functional validation, including, for example, metabolic flux analysis, mammosphere assays, viability assays, and antibiotic (anti-bacterial and/or anti-fungal) activity. For example, the inventors determined extracellular acidification rates (ECAR) and real-time oxygen consumption rates (OCR) for MCF7 cells using the Seahorse Extracellular Flux (XF96) analyzer (Seahorse Bioscience, MA, USA). MCF7 cells were maintained in DMEM supplemented with 10% FBS (fetal bovine serum), 2 mM GlutaMAX, and 1% Pen-Strep. 5,000 cells per well were seeded into XF96-well cell culture plates, and incubated overnight at 37° C. in a 5% CO2 humidified atmosphere. After 24 hours, cells were treated with selected compounds showing ATP-depletion without prominent cytotoxicity at various concentrations (or vehicle alone). After 72 hours of treatment, cells were washed in pre-warmed XF assay media (for OCR measurement, XF assay media was supplemented with 10 mM glucose, 1 mM Pyruvate, 2 mM L-glutamine and adjusted at pH 7.4). Cells were maintained in 175 μL/well of XF assay media at 37° C. in a non-CO2 incubator for 1 hour. During incubation, 25 μL of 80 mM glucose, 9 μM oligomycin, 1M 2-deoxyglucose (for ECAR measurement) and 25 μL of 10 μM oligomycin, 9 μM FCCP, 10 μM rotenone, 10 μM antimycin A (for OCR measurement) in XF assay media was loaded into the injection ports of the XFe-96 sensor cartridge. During the experiment, the instrument injected these inhibitors into the wells at a given time point, while ECAR/OCR was measured continuously. ECAR and OCR measurements were normalized by protein content (using the Sulphorhodamine B assay). Data sets were analyzed by XFe-96 software, using one-way ANOVA and Student's t-test calculations. All experiments were performed in triplicate, and results validated the mitochondrial inhibition effects of mitoriboscin compounds described herein. It should be appreciated that numerous methods are known for functional validation, and that persons of skill in the art may select one or more depending on the validation needs (e.g., other assays that measure or approximate mitochondrial function). The present approach involves methods of function validation of mitoriboscin compounds. For example, the inventors assessed functional validation of three candidates using the Seahorse Analyzer, which quantitatively measures oxygen consumption rate (OCR) and extracellular acidification rate (ECAR). OCR is a surrogate marker for OXPHOS and ECAR is a surrogate marker for glycolysis and L-lactate production.

K. pneumoniae ATCC 13883 = test: MIC by broth dilution method; assay type: cell-based; conditions: K. pneumoniae ATCC 13883, 24 hours at 37° C.
Protocol: (§2) The minimal inhibitory concentration (MIC) of the antibacterial compounds may be determined using the broth dilution method, according to CLSI guidelines. Test compound solutions (or antibiotic solutions used as positive controls) were diluted, serially, with MHB medium. Then, the suspensions of the microorganisms, prepared from overnight cultures of bacteria in the MHB medium, at a concentration of 10^6 CFU/ml, were added to each dilution in a 1:1 ratio. McFarland standards were used as a reference to adjust the turbidity of microorganism suspensions. Growth (or lack thereof) of the microorganisms was determined after incubation for 24 hours at 37° C. by turbidimetry (wavelength of 600 nm). […] The susceptibility test by measurement of MIC was performed in triplicate and repeated three times independently.

[2] = system: Strept. pyogenes ATCC 19615; test: MIC by broth dilution method; assay type: cell-based; conditions: Strept. pyogenes ATCC 19615, 24 hours at 37° C.
Protocol: as §2

P. auriginosa ATCC 27853 = test: MIC by broth dilution method; assay type: cell-based; conditions: P. auriginosa ATCC 27853, 24 hours at 37° C.
Protocol: as §2

[3] = system: normal human fibroblasts (hTERT-BJ1 cells); test: Cell viability of normal fibroblasts; assay type: cell-based; conditions: 5 μM
Protocol: (§3) The present approach includes methods of confirming cell viability. Persons of skill in the art may select one or more methods for confirming cell viability suitable for the particular embodiment. The inventors initially used the Sulphorhodamine (SRB) assay, which is based on the measurement of cellular protein content. After treatment for 72 hours in 96-well plates, cells were fixed with 10% trichloroacetic acid (TCA) for 1 hour in the cold room, and were dried overnight at room temperature. Then, cells were incubated with SRB for 15 min, washed twice with 1% acetic acid, and air dried for at least 1 hour. Finally, the protein-bound dye was dissolved in a 10 mM Tris, pH 8.8 solution and read using the plate reader at 540-nm. Using the SRB assay, the inventors selected only the compounds depleting ATP levels without prominent cytotoxicity for further analysis. Prominent cytotoxicity was defined as fewer than 30% of cells still on the plate. Of course, embodiments employing other cell viability confirmation methodology may select compounds for further analysis based on other considerations as may be known in the art.
(§4) Based on this analysis, the inventors assessed the functional effects of the three candidates on overall viability in MCF7 cell monolayers and normal human fibroblasts (hTERT-BJ1 cells) (FIG. 6). […]

MCF7 cell monolayers = test: Cell viability of MCF7 cell monolayers; assay type: cell-based, human
Protocol: as §3, §4

MRSA ATCC 43300 = test: MIC by broth dilution method; assay type: cell-based, Methicillin-resistant Staphylococcus aureus
Protocol: as §2, with “nm). MIC 50 and MIC 99 are defined as the minimum inhibitory concentration of the compound required for 50% and 99% inhibition of bacterial growth.” for “nm).”, “independently. Statistical significance was determined using the Student's t-test and values of less than 0.05 were considered significant.” for “independently.”

MCF7 cells [4] = test: Seahorse XF96 metabolic flux: extracellular acidification rate (ECAR), glycolysis; assay type: cell-based, human
Source text: as §1, with “ECAR and OCR measurements were normalized by protein content (using the Sulphorhodamine B assay).” left out, “All experiments were performed in triplicate, and results validated the mitochondrial inhibition effects of mitoriboscin compounds described herein. It should be appreciated that numerous methods are known for functional validation, and that persons of skill in the art may select one or more depending on the validation needs (e.g., other assays that measure or approximate mitochondrial function). The present approach involves methods of function validation of mitoriboscin compounds.” left out, “OCR is a surrogate marker for OXPHOS and ECAR is a surrogate marker for glycolysis and L-lactate production.” left out

MCF7 cells [5] = test: Mammosphere formation; assay type: cell-based, human; conditions: MCF7, 5 μM
Source text: The present approach involves methods of testing compounds, and in particular mitoriboscins, for anti-cancer properties. As discussed above, vHTS and computational chemistry may be used to identify candidate mitochondrial inhibitors. Those candidates may be tested for specific anti-cancer properties. For examples, the inventors compared seven candidate compounds in parallel for their ability to inhibit mammosphere formation in MCF7 cells. […] For example, 23/G4 (Group 1) reduced mammosphere formation by 50% at this concentration. Similarly, 24/F9 (Group 2) and 24/D4 (Group 3), both reduced mammosphere formation by ˜90%.

| SMILES | rank order potency to reduce maximal respiration and ATP production (MCF7 cells [1]; FIG. 10) | mitochondrial oxygen-consumption (MCF7 cells [1]) | MIC 50% (K. pneumoniae ATCC 13883) [µg/mL] | MIC 99% (K. pneumoniae ATCC 13883) [µg/mL] | MIC 50% [2] [µg/mL] | MIC 99% [2] [µg/mL] | MIC 50% (P. auriginosa ATCC 27853) [µg/mL] | MIC 99% (P. auriginosa ATCC 27853) [µg/mL] | sensitivity of MRSA (MRSA ATCC 43300) | reduction of mammosphere formation (MCF7 cells [5]) [%] | further results |
| --- | --- | --- | --- | --- | --- | --- | --- | --- | --- | --- | --- |
| OC1C(NCc2ccccc2)CCCC1Oc1ccccc1Oc1cccc(F)c1 (centres unmarked) [23/E9] | top 6 | – | – | – | – | – | – | – | – | – | – |
| OC1C(NCc2ccccc2)CCCC1Oc1ccccc1Oc1ccc(Cl)cc1 (centres unmarked) [23/G4] | top 6 | dose-dependently inhibited | 16 (≈ 37.7 µM) | 32 (≈ 75.5 µM) | 4 (≈ 9.44 µM) | 8 (≈ 18.9 µM) | 16 (≈ 37.7 µM) | 32 (≈ 75.5 µM) | sensitive | 50 | reduction of ATP levels (MCF7 cells [1]; MCF7, 500 nM): > 50%; reduction of ATP levels (MCF7 cells [1]; MCF7, 2.5 μM): ~75%; reduction in ATP levels (MCF7 cells [1]; MCF7, 5 μM, FIG. 10): greater than 75%; effect on viability of hTERT-BJ1 cells [3]: no effect; effect on overall cell viability of MCF7 monolayers (MCF7 cell monolayers; 500 nM and 2.5 μM): little or no effect; reduction of viability of MCF7 cells (MCF7 cell monolayers; 5 μM): 70%; increase in glycolysis rates (MCF7 cells [4]): more than 1.5 fold |
| CCCc1ccc(OCc2ccccc2)c(CN2CCC3(CC2)CC(N(C)C)C(C)(O)CO3)c1 (centres unmarked) [24/D4] | – | dose-dependently inhibited | 16 (≈ 34.3 µM) | 32 (≈ 68.6 µM) | 16 (≈ 34.3 µM) | 32 (≈ 68.6 µM) | 16 (≈ 34.3 µM) | 32 (≈ 68.6 µM) | sensitive | ~90 | effect on glycolysis (MCF7 cells [4]): suppressed |
| CN1CCN(C2CCN(Cc3cc(C(C)(C)C)ccc3OCc3ccccc3)CCC2O)CC1 (centres unmarked) [24/F9] | top 6 | dose-dependently inhibited | 32 (≈ 68.7 µM) | 64 (≈ 137 µM) | 32 (≈ 68.7 µM) | 64 (≈ 137 µM) | >32 | >64 | – | ~90 | effect on glycolysis (MCF7 cells [4]): suppressed |
| CN1CCCN(C2CCN(Cc3cc(Cl)ccc3OCc3ccccc3)CCC2O)CC1 (centres unmarked) [24/H6] | top 6 | – | – | – | – | – | – | – | – | – | – |
| CN(C)C1CC2(CCN(Cc3cc(Cl)ccc3OCc3ccccc3)CC2)OCC1(C)O (centres unmarked) [24/H9] | top 6 | – | – | – | – | – | – | – | – | – | – |
| CN(C)Cc1cccc(C2CCCN2Cc2ccccc2OCc2cccc(F)c2)n1 (centres unmarked) [25/B3] | top 6 | – | – | – | – | – | – | – | – | – | – |
| CC1(C)S[C@@H]2[C@H](NC(=O)[C@H](N)c3ccc(O)cc3)C(=O)N2[C@H]1C(=O)O [AMOXICILLIN, reference compound] | – | – | – | – | – | – | – | – | resistant | – | – |
| C[C@H]1c2cccc(O)c2C(=O)C2=C(O)[C@]3(O)C(=O)C(C(N)=O)=C(O)[C@@H](N(C)C)[C@@H]3[C@@H](O)[C@@H]21 [DOXYCYCLINE, reference compound] | – | – | – | – | – | – | – | – | – | – | MIC50 (P. auriginosa ATCC 27853): 1 µg/mL (≈ 2.25 µM); MIC99 (P. auriginosa ATCC 27853): 2 µg/mL (≈ 4.5 µM) |

From patent publication US11547679B2, “Mitoriboscins: mitochondrial-based therapeutics targeting cancer cells, bacteria and pathogenic yeast” (LUNELLA BIOTECH, INC., priority 2017, dated 2023)
